Results from patent US20230398130A1, “METHODS AND COMPOSITIONS FOR DIFFERENTIATING STEM CELLS” (Massachusetts Institute of Technology, priority 2020, published 2023).

What was measured:
[1] = test system: ISC-enriched organoids; assay: Primary screen, 384-well 2.5-D organoid differentiation (ENR+CD, 6 days, Target Selective Inhibitor Library, vs whole-plate median): ATP (CellTiter-Glo 3D, CTG); conditions: for Dose.FC.CTG: ENR+CD 6 days, FC vs plate median; for Z.CTG: standard z score of FC; for Dose.FC.CTG (log 2 fold change, ATP) / Dose.FC.CTG (log 2 fold change): vs plate median
[2] = test system: ISC-enriched organoids; assay: Primary screen, 384-well 2.5-D organoid differentiation (ENR+CD, 6 days): carbachol-induced lysozyme secretion (LYZ.S); type: cell-based, murine; conditions: for Dose.FC.LYZ.S / Dose.FC.LYZ.S (log 2 fold change): primary screen; for Dose.FC.LYZ.S: ENR+CD 6 days, FC vs plate median; for Dose.FC.LYZ.S (log 2 fold change, carbachol-induced lysozyme secretion) / Dose.FC.LYZ.S (log 2 fold change): vs plate median
Description: (§1) High-throughput screening.

[3] = test system: ISC-enriched organoids; assay: Primary screen, 384-well 2.5-D organoid differentiation (ENR+CD, 6 days): basal lysozyme secretion (LYZ.NS); type: cell-based, murine; conditions: for Dose.FC.LYZ.NS: ENR+CD 6 days, FC vs plate median; for Z.LYZ.NS: standard z score of FC; for Dose.FC.LYZ.NS (log 2 fold change, basal lysozyme secretion) / Dose.FC.LYZ.NS (log 2 fold change): vs plate median
Description: as §1

With `CN(C)C(=O)Nc1cccc(-c2ccc(N(C)C)cc2)c1` [Atglistatin] the Dose.FC.CTG ([1]; primary screen, dose 0.08 uM) was 0.057 log 2 fold change, the Z.CTG ([1]; primary screen, dose 0.08 uM) was 0.137 and the Dose.FC.CTG ([1]; primary screen, dose 0.40 uM) was 0.004 log 2 fold change. For the same compound, the Z.CTG ([1]; primary screen, dose 0.40 uM) was 0.009, the Dose.FC.CTG ([1]; primary screen, dose 2.00 uM) was −0.045 log 2 fold change and the Z.CTG ([1]; primary screen, dose 2.00 uM) was −0.108. The Dose.FC.CTG ([1]; primary screen, dose 10.00 uM) was −0.431 log 2 fold change, the Z.CTG ([1]; primary screen, dose 10.00 uM) was −1.031 and the Dose.FC.LYZ.S ([2]; dose 0.08 uM) was 0.028 log 2 fold change. For the same compound, the Dose.FC.LYZ.S ([2]; dose 0.40 uM) was −0.035 log 2 fold change, the Dose.FC.LYZ.S ([2]; dose 2.00 uM) was 0.026 log 2 fold change and the Dose.FC.LYZ.S ([2]; dose 10.00 uM) was 0.012 log 2 fold change. The Dose.FC.LYZ.NS ([3]; primary screen, dose 0.08 uM) was 0.069 log 2 fold change, the Z.LYZ.NS ([3]; primary screen, dose 0.08 uM) was 0.604 and the Dose.FC.LYZ.NS ([3]; primary screen, dose 0.40 uM) was 0.135 log 2 fold change. The Z.LYZ.NS ([3]; primary screen, dose 0.40 uM) was 1.176, the Dose.FC.LYZ.NS ([3]; primary screen, dose 2.00 uM) was 0.070 log 2 fold change and the Z.LYZ.NS ([3]; primary screen, dose 2.00 uM) was 0.613. The Dose.FC.LYZ.NS ([3]; primary screen, dose 10.00 uM) was −0.016 log 2 fold change and the Z.LYZ.NS ([3]; primary screen, dose 10.00 uM) was −0.142.

With `Nc1cccc(-c2cc3c(Oc4cccc(O)c4)ncnc3[nH]2)c1` [TWS119] the “Z.CTG (standard z score)” value ([1]; dose 0.08 uM) was 0.784, the “Dose.FC.CTG (log 2 fold change, ATP)” value ([1]; dose 0.08 uM) was 0.328 and the “Z.CTG (standard z score)” value ([1]; dose 0.40 uM) was 0.796. The “Dose.FC.CTG (log 2 fold change, ATP)” value ([1]; dose 0.40 uM) was 0.333, the “Z.CTG (standard z score)” value ([1]; dose 2.00 uM) was 0.169 and the “Dose.FC.CTG (log 2 fold change, ATP)” value ([1]; dose 2.00 uM) was 0.071. For the same compound, the “Z.CTG (standard z score)” value ([1]; dose 10.00 uM) was −2.866, the “Dose.FC.CTG (log 2 fold change, ATP)” value ([1]; dose 10.00 uM) was −1.200 and the “Dose.FC.LYZ.S (log 2 fold change, carbachol-induced lysozyme secretion)” value ([2]; dose 0.08 uM) was 0.207. The “Dose.FC.LYZ.S (log 2 fold change, carbachol-induced lysozyme secretion)” value ([2]; dose 0.40 uM) was 0.142, the “Dose.FC.LYZ.S (log 2 fold change, carbachol-induced lysozyme secretion)” value ([2]; dose 2.00 uM) was 0.044 and the “Dose.FC.LYZ.S (log 2 fold change, carbachol-induced lysozyme secretion)” value ([2]; dose 10.00 uM) was −0.283. For the same compound, the “Z.LYZ.NS (standard z score)” value ([3]; dose 0.08 uM) was 0.820, the “Dose.FC.LYZ.NS (log 2 fold change, basal lysozyme secretion)” value ([3]; dose 0.08 uM) was 0.094 and the “Z.LYZ.NS (standard z score)” value ([3]; dose 0.40 uM) was 0.327. The “Dose.FC.LYZ.NS (log 2 fold change, basal lysozyme secretion)” value ([3]; dose 0.40 uM) was 0.038, the “Z.LYZ.NS (standard z score)” value ([3]; dose 2.00 uM) was 0.304 and the “Dose.FC.LYZ.NS (log 2 fold change, basal lysozyme secretion)” value ([3]; dose 2.00 uM) was 0.035. For the same compound, the “Z.LYZ.NS (standard z score)” value ([3]; dose 10.00 uM) was −2.027 and the “Dose.FC.LYZ.NS (log 2 fold change, basal lysozyme secretion)” value ([3]; dose 10.00 uM) was −0.233.

For `CC(C)[C@H](O)C(=O)N[C@@H](C)C(=O)N[C@@H]1C(=O)N(C)CCc2ccccc21` [Semagacestat (LY450139)], the “Z.CTG (standard z score)” value ([1]; Dose 0.08 uM, primary screen) was 0.338, the “Dose.FC.CTG (log 2 fold change)” value ([1]; Dose 0.08 uM, primary screen) was 0.141 and the “Z.CTG (standard z score)” value ([1]; Dose 0.40 uM, primary screen) was −0.494. The “Dose.FC.CTG (log 2 fold change)” value ([1]; Dose 0.40 uM, primary screen) was −0.207, the “Z.CTG (standard z score)” value ([1]; Dose 2.00 uM, primary screen) was −0.306 and the “Dose.FC.CTG (log 2 fold change)” value ([1]; Dose 2.00 uM, primary screen) was −0.128. The “Z.CTG (standard z score)” value ([1]; Dose 10.00 uM, primary screen) was −2.045, the “Dose.FC.CTG (log 2 fold change)” value ([1]; Dose 10.00 uM, primary screen) was −0.856 and the “Dose.FC.LYZ.S (log 2 fold change)” value ([2]; Dose 0.08 uM) was −0.014. For the same compound, the “Dose.FC.LYZ.S (log 2 fold change)” value ([2]; Dose 0.40 uM) was −0.006, the “Dose.FC.LYZ.S (log 2 fold change)” value ([2]; Dose 2.00 uM) was −0.081 and the “Dose.FC.LYZ.S (log 2 fold change)” value ([2]; Dose 10.00 uM) was −0.162. The “Z.LYZ.NS (standard z score)” value ([3]; Dose 0.08 uM, primary screen) was 0.151, the “Dose.FC.LYZ.NS (log 2 fold change)” value ([3]; Dose 0.08 uM, primary screen) was 0.017 and the “Z.LYZ.NS (standard z score)” value ([3]; Dose 0.40 uM, primary screen) was −0.181. For the same compound, the “Dose.FC.LYZ.NS (log 2 fold change)” value ([3]; Dose 0.40 uM, primary screen) was −0.021, the “Z.LYZ.NS (standard z score)” value ([3]; Dose 2.00 uM, primary screen) was −0.704 and the “Dose.FC.LYZ.NS (log 2 fold change)” value ([3]; Dose 2.00 uM, primary screen) was −0.081. The “Z.LYZ.NS (standard z score)” value ([3]; Dose 10.00 uM, primary screen) was −0.942 and the “Dose.FC.LYZ.NS (log 2 fold change)” value ([3]; Dose 10.00 uM, primary screen) was −0.108.
